According to PubChem BioAssay (NCI):
“And” between values parts separate entries of the source, which are not always exact repeats. Equal entries are not always repeated.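 Cells were grown in 96-well plates and exposed to each compound for 48 hours at five concentrations; endpoints were interpolated linearly between bracketing concentrations, or set to the highest concentration if not reached. The concentration for 50% growth inhibition is given as GI50. Definition used: TGI = concentration required for complete inhibition of growth.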

Assays:
Test in all cases: DTP human tumour cell line panel, 48 h
UACC-257 melanoma = tested on: UACC-257 melanoma
NCI-H460 lung = tested on: NCI-H460 lung
RPMI-8226 leukemia = tested on: RPMI-8226 leukemia
HOP-62 NSCLC = tested on: HOP-62 NSCLC
IGROV1 ovarian = tested on: IGROV1 ovarian
SNB-19 CNS = tested on: SNB-19 CNS
OVCAR-8 ovarian = tested on: OVCAR-8 ovarian
SF-539 CNS = tested on: SF-539 CNS
HL-60(TB) leukemia = tested on: HL-60(TB) leukemia
UO-31 renal = tested on: UO-31 renal

SMILES | GI50 (UACC-257 melanoma) | TGI (UACC-257 melanoma) | GI50 (NCI-H460 lung) [µM] | TGI (NCI-H460 lung) [µM] | GI50 (RPMI-8226 leukemia) [µM] | TGI (RPMI-8226 leukemia) [µM] | GI50 (HOP-62 NSCLC) [µM] | TGI (HOP-62 NSCLC) [µM] | GI50 (IGROV1 ovarian) [µM] | TGI (IGROV1 ovarian) [µM] | GI50 (SNB-19 CNS) [µM] | TGI (SNB-19 CNS) [µM] | GI50 (OVCAR-8 ovarian) | TGI (OVCAR-8 ovarian) [µM] | GI50 (SF-539 CNS) | TGI (SF-539 CNS) [µM] | GI50 (HL-60(TB) leukemia) | TGI (HL-60(TB) leukemia) [µM] | GI50 (UO-31 renal) [µM] | TGI (UO-31 renal) [µM]
O=C(CCSc1ccnc2c(C(F)(F)F)cccc12)N/N=C/c1cc(Cl)c(Cl)cc1Cl | 83.5 µM | > 100 µM | 25.4 | 54.5 | 19 | 52.7 | 19.8 | 35.8 | 18.8 | 40.7 | 21.9 | 48.5 | 32.5 µM | 86 | 18 µM | 35.4 | 32.2 µM | 58 | 20.6 | 49.2
CC(C)C(=O)[O-].CC(C)C(=O)[O-].N.N.N.N.[Co+3].[O-][Cl+3]([O-])([O-])[O-] | > 100 µM | > 100 µM | > 100 | > 100 | > 100 | > 100 | > 100 | > 100 | > 100 | > 100 | > 100 | > 100 | > 100 µM | > 100 | > 100 µM | > 100 | > 100 µM | > 100 | > 100 | > 100
CC1(C)CC([P+](c2ccccc2)(c2ccccc2)c2ccccc2)=NN1 | 2.82 µM | > 100 µM | 6.09 | > 100 | 4.41 | > 100 | 7.4 | > 100 | 6.47 | > 100 | 5.03 | > 100 | 5.92 µM | > 100 | 6.13 µM | 97.3 | 1.91 µM | 9.19 | > 100 | > 100
CN(C)CCSCCO | – | > 100 µM | – | > 100 | – | > 100 | – | > 100 | – | > 100 | – | > 100 | – | > 100 | – | > 100 | – | > 100 | – | > 100
O=C(N/N=C/c1ccc(Cl)cc1Cl)c1ccc2nc(-c3ccc(Cl)cc3)[nH]c2c1 | 2.14 µM | 4.72 µM | 1.56 | 3.13 | 1.16 | 3.51 | 1.8 | 4.1 | 1.5 | 2.98 | 2.34 | 5.06 | 2.11 µM | 4.74 | 1.7 µM | 3.17 | 1.85 µM | 6.53 | 1.58 | 2.99
Clc1cc(-c2ccccc2)nc2ccccc12 | – | > 100 µM | – | > 100 | – | 59 | – | > 100 | – | > 100 | – | > 100 | – | > 100 | – | > 100 | – | 53.3 | – | > 100
Cn1cnc2c(F)c(Nc3ccc(Br)cc3F)c(C(=O)NOCCO)cc21 | 0.0224 µM and 0.024 µM | 0.253 µM and 0.148 µM | > 100 | > 100 | > 56.4 | > 100 | – | > 100 | – | > 100 | 4.37 | > 100 | > 2.17 µM and 99.7 µM | > 100 | > 3.24 µM and 21.5 µM | > 100 | 0.0193 µM and 0.0192 µM | > 100 | 7.41 | > 100
